Experiments:
Test in all cases: KINOMEscan competition binding
Details in all cases: compound 10.0 µM
[1] = molecular target: PLK2 (human) (UniProt Q9NYY3)
[2] = molecular target: HIPK2 (human) (UniProt Q9H2X6)
[3] = molecular target: CRK2 (P.falciparum) (UniProt P61075)
[4] = molecular target: MYLK3 (human) (UniProt Q32MK0)
[5] = molecular target: GRK4 (human) (UniProt P32298)
[6] = molecular target: PRKCI (human) (UniProt P41743)
[7] = molecular target: YSK4 (human) (UniProt Q56UN5)
[8] = molecular target: STK39 (human) (UniProt Q9UEW8)
[9] = tested on: PIK3CA (human), P42336 [I800L]
[10] = molecular target: CDK13 (human) (UniProt Q14004)
[11] = tested on: CPK1 (P.falciparum)
[12] = molecular target: NIM1 (human) (UniProt Q8IY84)
[13] = molecular target: SIK3 (human) (UniProt Q9Y2K2)
[14] = molecular target: MAP3K15 (human) (UniProt Q6ZN16)
[15] = tested on: PIK3CA (human), P42336 [C420R]
[16] = molecular target: EGFR (human) (UniProt P00533)
[17] = molecular target: VRK2 (human) (UniProt Q86Y07)
[18] = molecular target: IRAK4 (human) (UniProt Q9NWZ3)
[19] = molecular target: MAP3K13 (human) (UniProt O43283)
[20] = molecular target: MAP3K1 (human) (UniProt Q13233)
[21] = molecular target: TAOK2 (human) (UniProt Q9UL54)
[22] = molecular target: BRAF (human) (UniProt P15056)
[23] = molecular target: CDK4 CCND3 (human) (UniProt P11802+P30281)
[24] = molecular target: MAP3K2 (human) (UniProt Q9Y2U5)
Chain of MAP3K2 (human) (Q9Y2U5 whole entry, looked up): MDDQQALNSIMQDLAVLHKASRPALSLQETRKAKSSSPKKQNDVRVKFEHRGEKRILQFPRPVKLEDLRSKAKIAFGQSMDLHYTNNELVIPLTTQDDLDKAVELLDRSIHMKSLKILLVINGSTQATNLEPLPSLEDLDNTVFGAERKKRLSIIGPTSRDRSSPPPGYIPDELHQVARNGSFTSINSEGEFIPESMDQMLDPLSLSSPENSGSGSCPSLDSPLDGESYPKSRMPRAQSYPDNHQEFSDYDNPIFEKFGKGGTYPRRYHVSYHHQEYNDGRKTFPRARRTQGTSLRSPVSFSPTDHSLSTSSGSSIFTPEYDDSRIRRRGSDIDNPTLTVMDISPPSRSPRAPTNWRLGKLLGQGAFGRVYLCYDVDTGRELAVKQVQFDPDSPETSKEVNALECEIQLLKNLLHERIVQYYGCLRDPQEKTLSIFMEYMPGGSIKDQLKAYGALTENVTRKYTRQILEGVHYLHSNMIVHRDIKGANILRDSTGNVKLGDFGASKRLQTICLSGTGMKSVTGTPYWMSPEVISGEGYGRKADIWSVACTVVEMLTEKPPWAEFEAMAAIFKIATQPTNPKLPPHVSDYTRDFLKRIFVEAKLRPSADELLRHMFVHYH

[25] = tested on: PIK3CA (human), P42336 [Q546K]
[26] = molecular target: MET (human) (UniProt P08581)
[27] = molecular target: SGK3 (human) (UniProt Q96BR1)
Chain of SGK3 (human) (Q96BR1 whole entry, looked up): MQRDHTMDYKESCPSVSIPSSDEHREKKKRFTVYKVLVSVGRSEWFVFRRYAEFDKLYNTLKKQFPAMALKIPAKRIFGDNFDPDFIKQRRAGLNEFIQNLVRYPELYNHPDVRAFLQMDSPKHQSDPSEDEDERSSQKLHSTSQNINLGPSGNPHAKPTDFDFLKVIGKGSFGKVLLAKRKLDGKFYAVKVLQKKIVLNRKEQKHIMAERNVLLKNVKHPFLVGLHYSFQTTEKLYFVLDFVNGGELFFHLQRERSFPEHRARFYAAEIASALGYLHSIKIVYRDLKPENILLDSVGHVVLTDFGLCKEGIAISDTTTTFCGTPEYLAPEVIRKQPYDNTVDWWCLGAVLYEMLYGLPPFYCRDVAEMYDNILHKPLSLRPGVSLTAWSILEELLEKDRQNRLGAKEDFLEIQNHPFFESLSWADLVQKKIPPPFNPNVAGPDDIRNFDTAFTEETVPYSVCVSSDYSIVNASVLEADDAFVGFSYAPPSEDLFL

[28] = molecular target: PIK3C2G (human) (UniProt O75747)
[29] = molecular target: GRK1 (human) (UniProt Q15835)
[30] = molecular target: DYRK1A (human) (UniProt Q13627)
[31] = molecular target: CDK2 (human) (UniProt P24941)
[32] = tested on: ABL1 (human), P00519 [E255K]
[33] = tested on: EGFR (human), P00533 [P753S; 747-752 del]
[34] = tested on: EGFR (human), P00533 [746-750 del]
[35] = tested on: EGFR (human), P00533 [L861Q]
[36] = tested on: KIT (human), P10721 [V559D/T670I]
[37] = molecular target: KIT (human) (UniProt P10721)
[38] = tested on: EGFR (human), P00533 [G719S]
[39] = molecular target: PIK3CG (human) (UniProt P48736)
[40] = tested on: PIK3CA (human), P42336 [H1047Y]

Chain of YSK4 (human) (Q56UN5 whole entry, looked up): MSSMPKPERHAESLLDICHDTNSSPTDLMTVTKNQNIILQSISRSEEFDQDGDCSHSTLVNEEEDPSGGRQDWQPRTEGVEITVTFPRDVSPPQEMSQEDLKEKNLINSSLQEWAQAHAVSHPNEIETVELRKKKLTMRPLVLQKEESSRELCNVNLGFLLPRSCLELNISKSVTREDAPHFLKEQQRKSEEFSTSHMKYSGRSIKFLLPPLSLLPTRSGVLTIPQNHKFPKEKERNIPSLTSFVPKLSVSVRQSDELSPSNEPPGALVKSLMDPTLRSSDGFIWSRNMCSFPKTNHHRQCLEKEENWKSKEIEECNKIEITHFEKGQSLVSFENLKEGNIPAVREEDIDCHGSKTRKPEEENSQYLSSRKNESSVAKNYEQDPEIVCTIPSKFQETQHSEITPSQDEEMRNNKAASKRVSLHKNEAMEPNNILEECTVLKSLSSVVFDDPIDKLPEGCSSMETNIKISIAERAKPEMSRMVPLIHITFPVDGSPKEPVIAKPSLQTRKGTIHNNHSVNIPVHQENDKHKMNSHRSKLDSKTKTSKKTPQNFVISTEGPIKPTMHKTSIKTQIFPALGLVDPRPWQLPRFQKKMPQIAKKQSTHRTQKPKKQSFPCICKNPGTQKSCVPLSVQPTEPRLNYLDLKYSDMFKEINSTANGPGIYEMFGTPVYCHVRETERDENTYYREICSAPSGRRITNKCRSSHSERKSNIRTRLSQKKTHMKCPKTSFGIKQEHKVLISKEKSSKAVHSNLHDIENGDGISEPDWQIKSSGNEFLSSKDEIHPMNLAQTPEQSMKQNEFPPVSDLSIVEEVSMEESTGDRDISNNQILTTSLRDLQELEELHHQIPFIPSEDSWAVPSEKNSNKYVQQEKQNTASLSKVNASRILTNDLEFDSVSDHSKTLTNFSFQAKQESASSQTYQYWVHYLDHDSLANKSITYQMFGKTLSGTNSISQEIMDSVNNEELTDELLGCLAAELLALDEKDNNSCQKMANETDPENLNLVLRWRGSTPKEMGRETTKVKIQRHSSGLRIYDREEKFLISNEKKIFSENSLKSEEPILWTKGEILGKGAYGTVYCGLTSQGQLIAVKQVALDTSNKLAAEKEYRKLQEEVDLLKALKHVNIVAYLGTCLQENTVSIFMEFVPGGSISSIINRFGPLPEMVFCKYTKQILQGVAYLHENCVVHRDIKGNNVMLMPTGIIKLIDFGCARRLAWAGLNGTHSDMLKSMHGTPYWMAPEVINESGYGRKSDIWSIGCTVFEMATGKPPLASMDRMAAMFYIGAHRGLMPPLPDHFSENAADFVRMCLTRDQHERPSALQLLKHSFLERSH
Chain of MYLK3 (human) (Q32MK0 whole entry, looked up): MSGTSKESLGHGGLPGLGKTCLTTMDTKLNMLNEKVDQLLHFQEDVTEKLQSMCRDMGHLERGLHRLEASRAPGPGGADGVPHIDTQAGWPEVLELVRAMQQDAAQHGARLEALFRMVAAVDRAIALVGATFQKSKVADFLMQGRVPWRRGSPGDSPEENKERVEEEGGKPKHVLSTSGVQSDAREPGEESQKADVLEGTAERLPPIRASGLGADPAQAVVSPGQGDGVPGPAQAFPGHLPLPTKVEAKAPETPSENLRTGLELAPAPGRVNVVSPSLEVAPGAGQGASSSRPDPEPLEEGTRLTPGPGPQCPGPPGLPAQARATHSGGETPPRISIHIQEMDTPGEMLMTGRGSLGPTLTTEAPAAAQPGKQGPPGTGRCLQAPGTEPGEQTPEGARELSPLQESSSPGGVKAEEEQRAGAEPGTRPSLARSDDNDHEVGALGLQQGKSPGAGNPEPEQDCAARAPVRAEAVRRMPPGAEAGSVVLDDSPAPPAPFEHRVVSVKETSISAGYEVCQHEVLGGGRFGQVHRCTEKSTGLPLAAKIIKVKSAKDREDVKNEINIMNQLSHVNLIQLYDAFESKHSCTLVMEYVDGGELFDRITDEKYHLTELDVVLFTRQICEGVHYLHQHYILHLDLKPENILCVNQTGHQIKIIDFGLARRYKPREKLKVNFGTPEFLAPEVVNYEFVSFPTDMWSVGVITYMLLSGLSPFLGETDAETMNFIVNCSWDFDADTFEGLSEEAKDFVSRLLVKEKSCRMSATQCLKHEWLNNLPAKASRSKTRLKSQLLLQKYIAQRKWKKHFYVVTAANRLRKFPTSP
Chain of GRK4 (human) (P32298 whole entry, looked up): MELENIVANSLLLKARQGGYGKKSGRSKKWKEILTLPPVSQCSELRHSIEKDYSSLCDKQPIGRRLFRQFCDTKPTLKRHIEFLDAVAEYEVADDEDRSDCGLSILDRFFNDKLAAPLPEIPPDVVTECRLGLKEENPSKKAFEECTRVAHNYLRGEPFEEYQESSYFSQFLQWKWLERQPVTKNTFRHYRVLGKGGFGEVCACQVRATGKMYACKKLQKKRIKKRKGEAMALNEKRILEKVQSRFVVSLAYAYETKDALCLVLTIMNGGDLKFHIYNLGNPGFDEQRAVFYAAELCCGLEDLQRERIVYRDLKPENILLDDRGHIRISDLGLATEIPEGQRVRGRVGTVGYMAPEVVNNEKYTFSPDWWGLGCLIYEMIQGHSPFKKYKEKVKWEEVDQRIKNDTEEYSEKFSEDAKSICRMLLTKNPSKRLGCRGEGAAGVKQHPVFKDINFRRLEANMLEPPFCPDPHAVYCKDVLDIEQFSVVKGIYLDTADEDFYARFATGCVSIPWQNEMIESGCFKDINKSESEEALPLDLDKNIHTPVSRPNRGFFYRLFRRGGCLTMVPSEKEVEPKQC
Chain of PLK2 (human) (Q9NYY3 whole entry, looked up): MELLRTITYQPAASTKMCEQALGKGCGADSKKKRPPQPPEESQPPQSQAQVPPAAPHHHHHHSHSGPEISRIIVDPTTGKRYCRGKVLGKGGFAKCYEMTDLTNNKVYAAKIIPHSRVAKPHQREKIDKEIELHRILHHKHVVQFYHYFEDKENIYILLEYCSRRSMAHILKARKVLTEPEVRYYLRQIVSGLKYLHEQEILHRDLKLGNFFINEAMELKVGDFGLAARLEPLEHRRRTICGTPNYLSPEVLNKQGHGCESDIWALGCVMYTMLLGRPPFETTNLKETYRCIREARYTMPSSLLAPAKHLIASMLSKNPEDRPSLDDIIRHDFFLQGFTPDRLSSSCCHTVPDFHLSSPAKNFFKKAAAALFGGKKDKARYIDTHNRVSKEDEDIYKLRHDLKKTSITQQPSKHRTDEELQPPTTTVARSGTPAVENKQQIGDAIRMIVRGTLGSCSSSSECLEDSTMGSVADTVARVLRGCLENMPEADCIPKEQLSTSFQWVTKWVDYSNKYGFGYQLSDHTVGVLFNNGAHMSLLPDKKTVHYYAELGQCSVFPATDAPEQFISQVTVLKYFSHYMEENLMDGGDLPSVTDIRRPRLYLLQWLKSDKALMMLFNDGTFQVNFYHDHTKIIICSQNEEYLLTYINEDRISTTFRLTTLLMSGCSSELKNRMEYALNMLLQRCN
Chain of CRK2 (P.falciparum) (P61075 whole entry, looked up): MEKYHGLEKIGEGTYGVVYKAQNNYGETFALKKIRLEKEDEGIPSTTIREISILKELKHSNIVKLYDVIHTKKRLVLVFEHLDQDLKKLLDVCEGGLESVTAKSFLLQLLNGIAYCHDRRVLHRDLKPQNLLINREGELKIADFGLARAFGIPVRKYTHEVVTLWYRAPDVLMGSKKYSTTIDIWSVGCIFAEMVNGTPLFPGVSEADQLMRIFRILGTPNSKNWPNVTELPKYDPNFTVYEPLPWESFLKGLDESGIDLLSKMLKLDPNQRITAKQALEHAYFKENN

Compound `CCC(=O)N1CCN(c2ccc(-n3c(=O)ccc4cnc5ccc(-c6cnc7ccccc7c6)cc5c43)cc2C(F)(F)F)CC1` has a kinase still bound, per cent of control [1] of 85%, a kinase still bound, per cent of control [2] of 58% and a kinase still bound, per cent of control [3] of 97%. For the same compound, the kinase still bound, per cent of control [4] was 94%, the kinase still bound, per cent of control [5] was 90% and the kinase still bound, per cent of control [6] was 85%. For the same compound, the kinase still bound, per cent of control [7] was 38%, the kinase still bound, per cent of control [8] was 100% and the kinase still bound, per cent of control [9] was 0%. The kinase still bound, per cent of control [10] was 80%, the kinase still bound, per cent of control [11] was 36% and the kinase still bound, per cent of control [12] was 84%. For the same compound, the kinase still bound, per cent of control [13] was 89%, the kinase still bound, per cent of control [14] was 100% and the kinase still bound, per cent of control [15] was 0.7%. It also gave a kinase still bound, per cent of control [16] of 85%, a kinase still bound, per cent of control [17] of 100% and a kinase still bound, per cent of control [18] of 90%. The kinase still bound, per cent of control [19] was 100%, the kinase still bound, per cent of control [20] was 92% and the kinase still bound, per cent of control [21] was 84%. It also gave a kinase still bound, per cent of control [22] of 59%, a kinase still bound, per cent of control [23] of 87% and a kinase still bound, per cent of control [24] of 62%. It also gave a kinase still bound, per cent of control [25] of 6.8%, a kinase still bound, per cent of control [26] of 84% and a kinase still bound, per cent of control [27] of 100%. For the same compound, the kinase still bound, per cent of control [28] was 11%, the kinase still bound, per cent of control [29] was 99% and the kinase still bound, per cent of control [30] was 71%. The kinase still bound, per cent of control [31] was 6.2%.

In the case of `Cc1cc([C@@H](C)Nc2ccccc2C(=O)O)c2nc(N3CCOCC3)cc(=O)n2c1`, the kinase still bound, per cent of control [1] is reported as 99%, the kinase still bound, per cent of control [32] is reported as 94% and the kinase still bound, per cent of control [2] is reported as 79%. The kinase still bound, per cent of control [3] was 98%, the kinase still bound, per cent of control [4] was 100% and the kinase still bound, per cent of control [5] was 90%. For the same compound, the kinase still bound, per cent of control [6] was 100%, the kinase still bound, per cent of control [7] was 100% and the kinase still bound, per cent of control [8] was 100%. The kinase still bound, per cent of control [10] was 88%, the kinase still bound, per cent of control [33] was 100% and the kinase still bound, per cent of control [34] was 100%. The kinase still bound, per cent of control [11] was 62%, the kinase still bound, per cent of control [12] was 100% and the kinase still bound, per cent of control [13] was 95%. For the same compound, the kinase still bound, per cent of control [14] was 87%, the kinase still bound, per cent of control [16] was 96% and the kinase still bound, per cent of control [17] was 100%. For the same compound, the kinase still bound, per cent of control [18] was 100%, the kinase still bound, per cent of control [35] was 100% and the kinase still bound, per cent of control [36] was 91%. For the same compound, the kinase still bound, per cent of control [19] was 100%, the kinase still bound, per cent of control [37] was 91% and the kinase still bound, per cent of control [20] was 90%. It also gave a kinase still bound, per cent of control [21] of 94%, a kinase still bound, per cent of control [22] of 100% and a kinase still bound, per cent of control [23] of 100%. For the same compound, the kinase still bound, per cent of control [24] was 100%, the kinase still bound, per cent of control [26] was 86% and the kinase still bound, per cent of control [27] was 86%. It also gave a kinase still bound, per cent of control [28] of 7%, a kinase still bound, per cent of control [29] of 100% and a kinase still bound, per cent of control [30] of 90%. It also gave a kinase still bound, per cent of control [31] of 93% and a kinase still bound, per cent of control [38] of 98%.

`N#Cc1c(NC(=O)c2cccc3ccccc23)sc2c1CCCC2` gave a kinase still bound, per cent of control [1] of 100%, a kinase still bound, per cent of control [32] of 100% and a kinase still bound, per cent of control [2] of 100%. For the same compound, the kinase still bound, per cent of control [3] was 100%, the kinase still bound, per cent of control [39] was 99% and the kinase still bound, per cent of control [4] was 100%. The kinase still bound, per cent of control [5] was 100%, the kinase still bound, per cent of control [6] was 63% and the kinase still bound, per cent of control [7] was 100%. The kinase still bound, per cent of control [8] was 100%, the kinase still bound, per cent of control [9] was 98% and the kinase still bound, per cent of control [10] was 87%. For the same compound, the kinase still bound, per cent of control [11] was 81%, the kinase still bound, per cent of control [12] was 100% and the kinase still bound, per cent of control [13] was 65%. It also gave a kinase still bound, per cent of control [14] of 100%, a kinase still bound, per cent of control [15] of 92% and a kinase still bound, per cent of control [17] of 100%. It also gave a kinase still bound, per cent of control [18] of 100%, a kinase still bound, per cent of control [36] of 78% and a kinase still bound, per cent of control [19] of 83%. For the same compound, the kinase still bound, per cent of control [20] was 59%, the kinase still bound, per cent of control [21] was 100% and the kinase still bound, per cent of control [22] was 100%. The kinase still bound, per cent of control [23] was 84%, the kinase still bound, per cent of control [24] was 100% and the kinase still bound, per cent of control [25] was 79%. The kinase still bound, per cent of control [26] was 66%, the kinase still bound, per cent of control [27] was 92% and the kinase still bound, per cent of control [40] was 100%. For the same compound, the kinase still bound, per cent of control [28] was 87%, the kinase still bound, per cent of control [29] was 100% and the kinase still bound, per cent of control [30] was 100%. The kinase still bound, per cent of control [31] was 95%.

— the kinase profiling compilation of Christmann-Franck et al. (2016)
